Assay results as given in ChEMBL document CHEMBL4342452, “Water-Soluble Glutamic Acid Derivatives Produced in Culture by Penicillium solitum IS1-A from King George Island, Maritime Antarctica” (J Nat Prod, 2020).
Active and inactive are the calls of the source. No cut-off for these calls is given here.

Columns and labels:
MCF7 = assay: Cytotoxicity against human MCF7 cells after 24 hrs by tetrazolium dye based assay; format: functional, cell-based
Pseudomonas aeruginosa = assay: Antibacterial activity against Pseudomonas aeruginosa ATCC 27853 incubated for 18 hrs by microdilution method; format: functional, organism-based
MCF-10A = assay: Cytotoxicity against human MCF10A cells after 24 hrs by tetrazolium dye based assay; format: cell-based
Klebsiella pneumoniae = assay: Antibacterial activity against Klebsiella pneumoniae ATCC 700603 incubated for 18 hrs by microdilution method; format: functional, organism-based
A549 = assay: Cytotoxicity against human A549 cells after 24 hrs by tetrazolium dye based assay; format: functional, cell-based
Staphylococcus aureus = assay: Antibacterial activity against Staphylococcus aureus ATCC 29213 incubated for 18 hrs by microdilution method; format: functional, organism-based
Enterococcus faecalis = assay: Antibacterial activity against Enterococcus faecalis ATCC 29212 incubated for 18 hrs by microdilution method; format: functional, organism-based
HeLa = assay: Cytotoxicity against human HeLa cells after 24 hrs by tetrazolium dye based assay; format: functional, cell-based
Homo sapiens = species on record: Homo sapiens; assay: Cytotoxicity against human ACP01 cells after 24 hrs by tetrazolium dye based assay; format: functional, cell-based

| SMILES | Activity (MCF7) | Activity (Pseudomonas aeruginosa) | Activity (MCF-10A) | Activity (Klebsiella pneumoniae) | Activity (A549) | Activity (Staphylococcus aureus) | Activity (Enterococcus faecalis) | Activity (HeLa) | Activity (Homo sapiens) |
| --- | --- | --- | --- | --- | --- | --- | --- | --- | --- |
| C=CC(C)(C)[C@@]1(CCNC(=O)CC[C@H](N)C(=O)O)C(=O)Nc2ccccc21 | inactive | inactive | Non-Toxic | inactive | inactive | inactive | inactive | inactive | inactive |
| C=CC(C)(C)[C@H]1Nc2ccccc2C(=O)[C@@H]1CNC(=O)CC[C@H](N)C(=O)O | inactive | inactive | Non-Toxic | inactive | inactive | inactive | inactive | inactive | inactive |
| C=CC(C)(C)c1[nH]c2ccccc2c(=O)c1CNC(=O)CC[C@H](N)C(=O)O | inactive | inactive | Non-Toxic | inactive | inactive | inactive | inactive | inactive | inactive |
| C=CC(C)(C)C(=O)Nc1ccccc1C(=O)CCNC(=O)CC[C@H](N)C(=O)O | inactive | inactive | Non-Toxic | inactive | inactive | inactive | inactive | inactive | inactive |
| C=CC(C)(C)c1[nH]c2ccccc2c1CCNC(=O)CC[C@H](O)C(=O)O | inactive | inactive | Non-Toxic | inactive | inactive | inactive | inactive | inactive | inactive |
| C=CC(C)(C)c1[nH]c2ccccc2c1CCNC(=O)CC[C@H](N)C(=O)O | inactive | inactive | Non-Toxic | inactive | inactive | inactive | inactive | inactive | inactive |
